Data: PMC11852920, “The Diacylglycerol Acyltransferase 3 of Chlamydomonas reinhardtii Is a Disordered Protein Capable of Binding to Lipids Derived from Chloroplasts” (Biomolecules, 2025)

Biological target: T1, DGAT3 (Chlamydomonas reinhardtii, UniProt A8IMA8)
T1 construct: gene CHLRE_06g310200v5; Trp216, Trp218, Tyr294 (only Trp/Tyr residues); 18 Asp, 22 Glu, 6 Phe, 9 His; chloroplast protein
T1 sequence (A8IMA8 2-346): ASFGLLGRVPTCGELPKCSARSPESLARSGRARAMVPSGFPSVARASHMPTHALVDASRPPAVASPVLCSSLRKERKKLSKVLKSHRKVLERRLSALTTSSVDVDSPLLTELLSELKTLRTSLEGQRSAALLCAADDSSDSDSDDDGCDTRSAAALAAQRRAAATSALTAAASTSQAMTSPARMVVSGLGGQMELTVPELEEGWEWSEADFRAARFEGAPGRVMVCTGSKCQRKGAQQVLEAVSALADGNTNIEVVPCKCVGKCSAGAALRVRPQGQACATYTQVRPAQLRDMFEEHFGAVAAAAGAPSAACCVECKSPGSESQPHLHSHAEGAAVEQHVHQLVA
Test: steady-state intrinsic Trp fluorescence anisotropy titration with lipid vesicles
Type: binding
Conditions: partition coefficient (protein between water and lipid phase), not a Kd; anionic POPG vesicles (bilayer, not monomeric lipid); 5 uM protein, 50 mM Tris, 100 mM NaCl, 5 mM TCEP, pH 8; 25 °C

- Kp: ~ 40,000
SMILES: CCCCCCCC/C=C\CCCCCCCC(=O)O[C@H](COC(=O)CCCCCCCCCCCCCCC)COP(=O)(O)OCC(O)CO (mixture of isomers) [POPG, 1-palmitoyl-2-oleoyl-sn-glycero-3-phospho-(1′-rac-glycerol)]
